Consider two compounds from patent US10712352B2, “Methods and devices for assessing in vivo toxic levels of bilirubin and diagnosing increased risk of bilirubin neurotoxicity” (NEOMETRIX DX, priority 2018, dated 2020).

The structures appear in SMILES notation.

One data set deals with human defatted albumin (Homo sapiens, UniProt P02768). In words: Bilirubin binding isotherm in artificial serum containing human defatted albumin (peroxidase test). As to conditions: albumin 3.0 g/dL. On the procedure:
FIG. 5 illustrates the change in BFree (black dots) as BTotal increases. The negative intercept of 1/BFree versus 1/BTotal, i.e. KA, is […] and the negative slope/intercept, i.e. BTmax, is 37.5 mg/dL. The BTmax and KA in Table 3 are calculated as described above using the lowest BTotal (8.3 mg/dL) and BFree (0.51 μg/dL) paired with each of the other five measures of BTotal and BFree. The mean BTmax and KA of all 15 possible pairings in TABLE 4 are 39.1 mg/dL and 0.56 dL/μg, respectively.
Non-linear regression analysis of the molar ratios versus the BFree from TABLE 3 were used to determine the best fit K1 (0.93 dL/μg) and K2 (0.04 dL/μg) using the stoichiometric equation
(§1) This test is used clinically in Japan.
(§2) BFree is obtained by measuring BFss at the additional HRP concentration and using […]

Data set [1] has as its system plasma bilirubin binding sites (e.g. albumin). In words: Bilirubin binding panel (peroxidase test, before and after bilirubin enrichment) in plasma of 31 newborns <28 weeks gestation. More on the design: species or system human.
From the text: [formula] can be readily solved by for BTmax and KA by measuring BTotal and BFree before and after enrichment of the sample with bilirubin to provide BTotal, BFree, and BTotal_2, BFree_2. These provide two equations with two unknowns (BTmax and KA), that can be solved for BTmax as shown below:
as §1, §2

A further data set has as its target human albumin (Homo sapiens, UniProt P02768). In words: Bilirubin binding before and after adding sulfisoxazole to a bilirubin/human albumin sample. The source says: The clinically relevant quantification of bilirubin binding are the mass action variables above (BTotal, BFree, BTotal_2, BFree_2, BTmax, and KA) constitute a Bilirubin Binding Panel (BBP). Optionally, BTmax and KA can be used to determine whether a newborn binds bilirubin normally.
Measuring Total and Unbound Bilirubin (BTotal and BFree): The peroxidase test (see, e.g., Jacobsen J, Wennberg R P. Determination of unbound bilirubin in the serum of newborns. Clin Chem 1974; 20:783-789) measures both BTotal and BFree. This test is used clinically in Japan. In alternative embodiments, novel modifications of methods as provided herein measure BFree at two horseradish peroxidase levels to accurately determine BFree and measure BTotal and BFree before and after bilirubin enrichment of a plasma or other blood sample to provide BTmax and KA to complete the Bilirubin Binding Panel (BBP) described herein. […] The peroxidase test is based on the horse radish peroxidase (HRP) catalyzed oxidation of bilirubin by peroxide. Bilirubin absorbs light maximally at 440 nm when no albumin is present and at 460 nm when bound to albumin. Bilirubin bound to albumin is protected from oxidation and only BFree is oxidized. The light absorbance at 440 nm (no albumin) or 460 nm (albumin present) decreases as bilirubin is oxidized, and the reaction rate constant, Kp, can be determined using known bilirubin and HRP concentrations in solutions without albumin present (i.e. all the bilirubin is unbound or “free”) as shown in the equivalent velocity equations below: […]
BTotal is calculated from the absorbance prior to adding HRP and H2O2 and BFree from the change in absorbance following addition of HRP/H2O2 as further described below. […]
BTotal is calculated by dividing the initial absorbance by the known extinction coefficient (0.827/cm light path length for BTotal in […]) and BFree is calculated from the change in absorbance at 460 nm after adding HRP/H2O2. […]

Chain of human defatted albumin (P02768 25-609): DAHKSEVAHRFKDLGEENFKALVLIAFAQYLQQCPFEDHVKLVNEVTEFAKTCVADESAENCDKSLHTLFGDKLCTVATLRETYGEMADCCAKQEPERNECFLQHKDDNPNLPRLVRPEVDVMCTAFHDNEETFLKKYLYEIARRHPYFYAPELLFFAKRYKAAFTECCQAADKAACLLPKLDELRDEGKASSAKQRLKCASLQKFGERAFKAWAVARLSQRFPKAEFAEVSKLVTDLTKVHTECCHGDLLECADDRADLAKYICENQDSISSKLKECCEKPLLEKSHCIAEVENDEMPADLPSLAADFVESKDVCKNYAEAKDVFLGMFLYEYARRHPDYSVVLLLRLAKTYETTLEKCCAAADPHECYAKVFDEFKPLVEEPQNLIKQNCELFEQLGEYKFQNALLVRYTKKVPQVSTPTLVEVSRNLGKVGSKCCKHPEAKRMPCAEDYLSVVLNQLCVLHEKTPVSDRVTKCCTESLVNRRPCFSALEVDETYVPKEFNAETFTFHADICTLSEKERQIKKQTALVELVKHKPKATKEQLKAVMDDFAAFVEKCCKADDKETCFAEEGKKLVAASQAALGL
Chain of human albumin (P02768 25-609): as above

For the compound `C=CC1=C(C)/C(=C/c2[nH]c(Cc3[nH]c(/C=C4\NC(=O)C(C)=C4C=C)c(C)c3CCC(=O)O)c(CCC(=O)O)c2C)NC1=O` [bilirubin], the BFree on human defatted albumin (BTotal 8.3 mg/dL (BTotal/ATotal molar ratio 0.31)) came to 0.51 µg/dL; at human defatted albumin (BTotal 11.7 mg/dL (molar ratio 0.44)), 0.92 µg/dL; at human defatted albumin (BTotal 18.5 mg/dL (molar ratio 0.69)), 1.70 µg/dL; at human defatted albumin (BTotal 22.2 mg/dL (molar ratio 0.83)), 2.39 µg/dL; on human defatted albumin (BTotal 28.3 mg/dL (molar ratio 1.06)), 6.05 µg/dL; on human defatted albumin (BTotal 31.3 mg/dL (molar ratio 1.18)), 9.88 µg/dL. This compound gave a BFree on human albumin (human, 8.3 mg/dL, pH 7.4) of 0.51 µg/dL. Also, the “BFree_2 (free bilirubin after bilirubin enrichment)” value in data set [1] (25th-75th percentile, after enrichment) is 1.1 to 3.3 µg/dL; in data set [1] (mean, after enrichment (mean BTotal_2 13.8 mg/dL)) it was 2.51 µg/dL; in data set [1] (median, after enrichment (median BTotal_2 13.7 mg/dL)), 1.93 µg/dL; in data set [1] (range, after enrichment (BTotal_2 6.3-23.0 mg/dL)) it was 0.42 to 10.61 µg/dL.
Turning to `Cc1noc(NS(=O)(=O)c2ccc(N)cc2)c1C` [+ sulfa, sulfisoxazole], the KA at human albumin (3.0 g/dL albumin, without or with sulfa) came out at 0.20 dL/µg. Besides, at human albumin (bilirubin/human albumin sample, 3.0 g/dL albumin), the “effect of adding sulfisoxazole on bilirubin BFree” value is recorded as “about doubles the BFree”.
